Data taken from patent publication US9468670B2, “Melatonin-based treatment and diagnosis of bile duct disease” (Texas A&M University System, priority 2011, dated 2016).

Legend:
[1] = tested on: large mouse cholangiocyte lines; assay: cAMP levels (RIA) in large mouse cholangiocyte lines; assay type: cell-based; conditions: preincubation with antagonist (10 mM), melatonin 10^−11 M
From the text: (§1) The expression of MT1 and MT2 receptors in immortalized large cholangiocytes was first evaluated by immunofluorescence (Francis et al., 2008). Images were visualized using an Olympus IX-71 confocal microscope. For all immunoreactions, negative controls (with normal serum from the same species substituted for the primary antibody) were included. It was next evaluated by commercially available radioimmunoassay (RIA) kits ([…] et al., 1998; Kato et al., 1992; […] et al., 1999; […] et al., 2004) for cAMP levels ([…] et al., 1998; Kato et al., 1992; […] Shiu et al., 2010). […] […] et al., 1992; Ramirez-Rodriguez et al., 2009; […], 1999). […] Shiu et al., 2010) before evaluating by immunoblots (Francis et al., 2008) the expression of PCNA and the phosphorylation of PKA and EKR1/2.

MT2 vs. the MT1 subtype = conditions: Shiu et al., 2010; cited from earlier work
[2] = tested on: large cholangiocyte lines; assay: PCNA expression and PKA, ERK1/2 phosphorylation (immunoblots) in immortalized large cholangiocytes; assay type: cell-based, mouse; conditions: preincubation with antagonist (10 mM), melatonin 10^−11 M, 48 hours
From the text: as §1

AANAT = target: T1, AANAT (Rattus norvegicus, UniProt Q64666); assay: Melatonin levels in serum and cholangiocyte supernatant (ELISA) of Morpholino-treated rats; assay type: in vivo; conditions: normal rats
T1 construct: the expression of AANAT in liver sections and cholangiocytes from the selected groups of animals; from tissue; host or cells: Male Fischer 344 rats: liver sections, total liver, isolated cholangiocytes, pineal gland, small intestine, serum
T1 sequence (Q64666 whole entry): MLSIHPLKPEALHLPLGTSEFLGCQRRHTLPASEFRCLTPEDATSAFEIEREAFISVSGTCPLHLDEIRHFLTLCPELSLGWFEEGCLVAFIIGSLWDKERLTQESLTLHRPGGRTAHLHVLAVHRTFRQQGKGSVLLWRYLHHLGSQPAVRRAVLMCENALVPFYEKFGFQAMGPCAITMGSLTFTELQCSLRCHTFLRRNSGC
Description: In separate experiments, normal rats treated with Vivo-Morpholino sequences of AANAT (5'-[…] NO:1), to reduce the biliary expression of AANAT) or Morpholino mismatched (5'-[…] NO:2)) (Gene Tools LCC) (1 mg/Kg BW/day) for 1 week via an implanted portal vein catheter. Serum, liver tissue, cholangiocytes, kidney, spleen, small intestine, stomach and heart were collected. Since our goal was to knock-down AANAT expression in the liver without inhibiting AANAT expression in other organs, we used a lower dose (1 mg/Kg/day) of Vivo-Morpholino than that described in the original study (3.0 mg/kg/day (Arora et al., 2002). This approach minimizes the amount of Vivo-Morpholino that circulates outside of the liver after slow infusion into the portal vein. See below for the surgical procedure for the implantation of the portal vein catheter by which AANAT Vivo-Morpholino or Morpholino mismatched was administered. Melatonin levels in serum and medium of primary cultures of isolated cholangiocytes were determined by ELISA kits (Genway, San Diego, Calif.). Supernatants were obtained from cholangiocytes (1×10^7 cells/ml) that were incubated for 6 hours at 37° C. (Glaser et al., 2008).

cholangiocytes = assay: Biliary proliferation (PCNA, IBDM) and apoptosis (TUNEL) in Morpholino-treated rats; assay type: in vivo, rat; conditions: normal rats, 1 mg/Kg BW/day for 1 week via portal vein catheter
Description: (§2) In separate experiments, normal rats treated with Vivo-Morpholino sequences of AANAT (5′-[…] (SEQ ID NO:1), to reduce the biliary expression of AANAT) or Morpholino mismatched (5′-[…] (SEQ ID NO:2)) (Gene Tools LCC) (1 mg/Kg BW/day) for 1 week via an implanted portal vein catheter. Serum, liver tissue, cholangiocytes, kidney, spleen, small intestine, stomach and heart were collected. Since our goal was to knock-down AANAT expression in the liver without inhibiting AANAT expression in other organs, we used a lower dose (1 mg/Kg/day) of Vivo-Morpholino than that described in the original study (3.0 mg/kg/day (Arora et al., 2002). This approach minimizes the amount of Vivo-Morpholino that circulates outside of the liver after slow infusion into the portal vein. See below for the surgical procedure for the implantation of the portal vein catheter by which AANAT Vivo-Morpholino or Morpholino mismatched was administered.
(§3) Biliary proliferation was determined by measurement of the percentage of PCNA-positive cholangiocytes by immunohistochemistry, and intrahepatic bile duct mass (IBDM) by immunohistochemistry for CK-19 (Mancinelli et al., 2010). Biliary apoptosis was evaluated by semiquantitative terminal deoxynucleotidyltransferase biotin-dUTP nick-end labeling (TUNEL) kit (Chemicon International, Inc., Temecula, Calif.) (Mancinelli et al., 2010). IBDM was determined as the area occupied by CK-19 positive-bile duct/total area×100 (Mancinelli et al., 2010). The morphological changes/damage in liver, spleen, kidney, heart, stomach, and small intestine were evaluated from AANAT Vivo-Morpholino- or mismatch-treated rats by H&E staining. The serum levels of the transaminases, glutamate pyruvate transaminases (SGPT) and glutamic oxaloacetic transaminase (SGOT), alkaline phosphatase (ALP) and total bilirubin were evaluated using a Dimension RxL Max Integrated Chemistry system (Dade Behring Inc., Deerfield Ill.), Chemistry Department, Scott & White.

[3] = rat, in vivo, 1 mg/kg/day
Description: as §2, §3

[4] = tested on: SR, CFTR, Cl−/HCO3− AE2, VEGF-A/C; assay: Expression of PCNA, SR, CFTR, Cl−/HCO3− AE2, VEGF-A/C in liver sections, liver tissue and cholangiocytes of Morpholino-treated rats; assay type: in vivo, rat; conditions: normal rats, 1 week
Description: as §2
By real-time PCR (Francis et al., 2008), the expression of PCNA, SR, CFTR, Cl^−/HCO3^− AE2, VEGF-A/C was evaluated in total RNA from: (i) cholangiocytes from normal rats, and BDL rats treated with melatonin; and (ii) liver tissue and cholangiocytes from rats treated with mismatch or AANAT Vivo-Morpholino for 1 week. A ΔΔCT analysis was obtained using normal cholangiocytes or normal total liver as control samples (Francis et al., 2008). The primers for rat PCNA, SR, CFTR, Cl^−/HCO3^− AE2, VEGF-A/C (SABiosciences) were designed according to the NCBI GenBank Accession numbers: NM_022381 (PCNA); NM_031115 (SR); NM_017048 (Cl^−/HCO3^− AE2); XM_001059206 (CFTR); NM_031836 (VEGF-A); and NM_053653 (VEGF-C). The percentage of cholangiocytes positive for SR, CFTR, Cl^−/HCO3^− AE2 and VEGF-A/C was evaluated in liver sections: when 0%-5% of bile ducts were positive a negative score was assigned; a +/−score was assigned when 6%-10% of ducts were positive; a +score was assigned when 11%-30% of bile ducts were positive (Glaser et al., 2009).

Row | Compound | Prevention of the melatonin-induced decrease in cAMP levels [1] | Selectivity for the MT2 vs. the MT1 subtype (MT2 vs. the MT1 subtype) [fold] | Prevention of the melatonin-induced decreases in PCNA expression and PKA, ERK2 phosphorylation [2] | Melatonin supernatant (AANAT; cholangiocyte supernatant, 6 hours at 37° C., 1 mg/Kg BW/day for 1 week) [pg/mL] | Melatonin serum (AANAT; 1 mg/Kg BW/day for 1 week via portal vein catheter) [pg/mL] | % IBDM (cholangiocytes) [%] | % PCNA-positive cholangiocytes (cholangiocytes) [%] | % apoptotic cholangiocytes (cholangiocytes) [%] | ALP [3] [Units/L] | SGOT [3] [Units/L] | SGPT [3] [Units/L] | Total bilirubin [3] [mg/L] | Immunoreactivity of cholangiocytes to Cl−HCO3− AE2 [4] | Immunoreactivity of cholangiocytes to SR [4] | Immunoreactivity of cholangiocytes to VEGF-A [4]
1 | CCC(=O)NC1Cc2ccccc2C(c2ccccc2)C1 (stereo not shown) [4-P-PDOT, 4-Phenyl-2-propionamidotetralin] | not | > 300 | – | – | – | – | – | – | – | – | – | – | – | – | –
2 | CC(=O)NCCc1c(Cc2ccccc2)[nH]c2ccccc12 [luzindole] | prevented | – | prevented | – | – | – | – | – | – | – | – | – | – | – | –
3 | mismatch Morpholino: Morpholino mismatched 5′-GTTCCCGACCTTTGCAACTCGTCCC (SEQ ID NO:2), control for AANAT Vivo-Morpholino (all phosphorodiamidate morpholino (PMO); further chemistry not fully specified) | – | – | – | 5.8 ± 0.6 | 46.4 ± 10.1 | 0.30 ± 0.04 | 8.00 ± 0.7 | <5 | 230.7 ± 9 | 120.5 ± 10.5 | 67.75 ± 4.6 | <0.1 | +/− (a +/−score was assigned when 6%-10% of ducts were positive) | +/− (a +/−score was assigned when 6%-10% of ducts were positive) | +/− (a +/−score was assigned when 6%-10% of ducts were positive)
